Reference: PubChem BioAssay AID330 (DTP/NCI, 2004)
Values joined by “and” are separate entries in the source; they are usually repeats but may differ in a detail not shown here. Equal values may be shown once. Inconclusive results and toxic doses are left out. The calls were made as follows: active = survival T/C of 150% or more; inactive = T/C below 125% in these data.

Tested on: P388 leukemia ip, CD2F1 mice, survival T/C
Test: NCI In Vivo Anticancer Drug Screen. Data for tumor model P388 Leukemia (intraperitoneal) in CD2F1 (CDF1) mice
Details: endpoint: median survival time, higher = longer survival
Outline: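 Mice carrying the transplanted tumor received test compound or vehicle. Survival was recorded in each group, and the value is the treated-group measurement divided by that of the vehicle-treated control group.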

[1] = dose: 50.0 mg/kg/injection, schedule: Q01DX005 (ip), vehicle: saline with Tween-80
[2] = dose: 100.0 mg/kg/injection, schedule: Q01DX005 (ip), vehicle: saline with Tween-80
[3] = dose: 200.0 mg/kg/injection, schedule: Q01DX005 (ip), vehicle: saline with Tween-80
[4] = dose: 60.0 mg/kg/injection, schedule: Q01DX005 (ip), vehicle: saline with Tween-80
[5] = dose: 120.0 mg/kg/injection, schedule: Q01DX005 (ip), vehicle: saline with Tween-80
[6] = dose: 240.0 mg/kg/injection, schedule: Q01DX005 (ip), vehicle: saline with Tween-80
[7] = dose: 100.0 mg/kg/injection, schedule: Q01DX009 (ip), vehicle: Klucel (hydroxypropylcellulose) (HPC)
[8] = dose: 200.0 mg/kg/injection, schedule: Q01DX009 (ip), vehicle: Klucel (hydroxypropylcellulose) (HPC)
[9] = dose: 100.0 mg/kg/injection, schedule: Q04DX003 (ip), vehicle: Klucel (hydroxypropylcellulose) (HPC)
[10] = dose: 200.0 mg/kg/injection, schedule: Q04DX003 (ip), vehicle: Klucel (hydroxypropylcellulose) (HPC)
[11] = dose: 400.0 mg/kg/injection, schedule: Q04DX003 (ip), vehicle: Klucel (hydroxypropylcellulose) (HPC)
[12] = dose: 50.0 mg/kg/injection, schedule: Q01DX005 (ip), vehicle: Klucel (hydroxypropylcellulose) (HPC)
[13] = dose: 100.0 mg/kg/injection, schedule: Q01DX005 (ip), vehicle: Klucel (hydroxypropylcellulose) (HPC)
[14] = dose: 200.0 mg/kg/injection, schedule: Q01DX005 (ip), vehicle: Klucel (hydroxypropylcellulose) (HPC)
[15] = dose: 25.0 mg/kg/injection, schedule: Q01DX005 (ip), vehicle: Klucel (hydroxypropylcellulose) (HPC)

Measured: T/C

CC(C)SCNc1ncnc2c1ncn2C1OC(CO)C(O)C1O (centres undefined)
inactive: dose: 100.0 mg/kg/injection, schedule: Q04DX002 (ip), vehicle: saline with Tween-80 98 % of control

CC1CCC2(C(=O)O)CCC3(C)C(=CCC4C5(C)CC(O)C(O)C(C)(C(=O)O)C5CCC43C)C2C1(C)O (centres undefined)
inactive: dose: 33.0 mg/kg/injection, schedule: Q01DX001 (ip), vehicle: saline with Tween-80 100 % of control | dose: 50.0 mg/kg/injection, schedule: Q01DX001 (ip), vehicle: saline with Tween-80 100 % of control | dose: 75.0 mg/kg/injection, schedule: Q01DX001 (ip), vehicle: saline with Tween-80 90 % of control

Cc1cc(=O)n(-c2ccc(S(=O)(=O)N=C(N)N)cc2)c(C)c1C(=O)O
inactive: [1] 102 % of control | [2] 106 % of control | [3] 103 % of control

C=C(C)CBr
inactive: [4] 100 % of control | [5] 100 % of control | [6] 100 % of control

CCC(C)P(=O)(N1CC1C)N1CC1C (centres undefined)
inactive: dose: 1.5 mg/kg/injection, schedule: Q01DX009 (ip), vehicle: saline 104 % of control | dose: 3.0 mg/kg/injection, schedule: Q01DX009 (ip), vehicle: saline 109 % of control | dose: 6.0 mg/kg/injection, schedule: Q01DX009 (ip), vehicle: saline 109 % of control | dose: 12.5 mg/kg/injection, schedule: Q04DX003 (ip), vehicle: saline 95 % of control | dose: 25.0 mg/kg/injection, schedule: Q04DX003 (ip), vehicle: saline 95 % of control | dose: 50.0 mg/kg/injection, schedule: Q04DX003 (ip), vehicle: saline 113 % of control

O=[N+]([O-])C(CO)C(CO)[N+](=O)[O-] (centres undefined)
inactive: [7] 110 % of control | dose: 100.0 mg/kg/injection, schedule: Q01DX009 (ip), vehicle: suspension in saline 103 % of control | [8] 108 % of control | dose: 200.0 mg/kg/injection, schedule: Q01DX009 (ip), vehicle: suspension in saline 100 % of control | dose: 400.0 mg/kg/injection, schedule: Q01DX009 (ip), vehicle: Klucel (hydroxypropylcellulose) (HPC) 111 % of control | dose: 400.0 mg/kg/injection, schedule: Q01DX009 (ip), vehicle: suspension in saline 109 % of control

CC(C)(C)c1noc2c1C(=O)c1ccccc1-2
inactive: dose: 60.0 mg/kg/injection, schedule: Q01DX005 (ip), vehicle: Klucel (hydroxypropylcellulose) (HPC) 99 % of control | dose: 120.0 mg/kg/injection, schedule: Q01DX005 (ip), vehicle: Klucel (hydroxypropylcellulose) (HPC) 91 % of control | dose: 240.0 mg/kg/injection, schedule: Q01DX005 (ip), vehicle: Klucel (hydroxypropylcellulose) (HPC) 96 % of control

COC1NC(=S)N(C(C)(C)C)C1(C)C (centres undefined)
inactive: dose: 12.5 mg/kg/injection, schedule: Q01DX009 (ip), vehicle: saline 99 % of control | dose: 25.0 mg/kg/injection, schedule: Q01DX009 (ip), vehicle: saline 100 % of control | dose: 50.0 mg/kg/injection, schedule: Q01DX009 (ip), vehicle: saline 107 % of control | dose: 50.0 mg/kg/injection, schedule: Q01DX009 (ip), vehicle: suspension in saline 97 % of control

CN1CC(=O)N=C1N
inactive: [9] 100 % of control | [10] 100 % of control | [11] 105 % of control

COC(=N)c1nc2c(N)nc(-c3ccccc3)nc2[nH]c1=O
inactive: dose: 100.0 mg/kg/injection, schedule: Q01DX009 (ip), vehicle: saline with Tween-80 98 % of control | dose: 200.0 mg/kg/injection, schedule: Q01DX009 (ip), vehicle: saline with Tween-80 98 % of control | dose: 400.0 mg/kg/injection, schedule: Q01DX009 (ip), vehicle: saline with Tween-80 97 % of control

NC(=O)CCN1CCCN(CCC(N)=O)CCN(CCC(N)=O)CCCN(CCC(N)=O)CC1
inactive: [4] 102 % of control | [5] 110 % of control | [6] 94 % of control

CC(C)(C)OC(=O)NC(CSCc1ccccc1)C(=O)ON1C(=O)CCC1=O (centres undefined)
inactive: [12] 100 % of control | [13] 98 % of control | [14] 94 % of control

CCOC(=O)C(C)(NC(=O)c1ccccc1)C(=O)OCC
inactive: dose: 60.0 mg/kg/injection, schedule: Q01DX005 (ip), vehicle: saline 101 % of control and 105 % of control | dose: 120.0 mg/kg/injection, schedule: Q01DX005 (ip), vehicle: saline 109 % of control | dose: 240.0 mg/kg/injection, schedule: Q01DX005 (ip), vehicle: saline 100 % of control and 97 % of control

CC(C)(C)C1CCC(O)(Cc2ccccc2)CC1 (centres undefined)
inactive: [1] 101 % of control | [2] 91 % of control | [3] 99 % of control

C=CCOc1ccccc1/C(Cl)=N/Nc1ccc([N+](=O)[O-])cc1[N+](=O)[O-]
inactive: dose: 100.0 mg/kg/injection, schedule: Q04DX003 (ip), vehicle: saline with Tween-80 97 % of control | dose: 200.0 mg/kg/injection, schedule: Q04DX003 (ip), vehicle: saline with Tween-80 94 % of control | dose: 400.0 mg/kg/injection, schedule: Q04DX003 (ip), vehicle: saline with Tween-80 89 % of control

O=c1cc(-c2ccccc2)oc2c(O)c(O)cc(O)c12
inactive: dose: 50.0 mg/kg/injection, schedule: Q04DX003 (ip), vehicle: Klucel (hydroxypropylcellulose) (HPC) 105 % of control | [9] 104 % of control | [10] 100 % of control | [11] 92 % of control

COC(=O)Nc1cnc(C(=O)O)c(C)c1-c1ccc(OC)c(OC)c1OCc1ccccc1
inactive: dose: 12.5 mg/kg/injection, schedule: Q01DX009 (ip), vehicle: other 97 % of control | dose: 25.0 mg/kg/injection, schedule: Q01DX009 (ip), vehicle: other 100 % of control | dose: 50.0 mg/kg/injection, schedule: Q01DX009 (ip), vehicle: other 102 % of control | dose: 100.0 mg/kg/injection, schedule: Q01DX009 (ip), vehicle: other 101 % of control | dose: 200.0 mg/kg/injection, schedule: Q01DX009 (ip), vehicle: other 103 % of control

COC(=O)C(NC(=O)C(CO)N1C(=O)c2ccccc2C1=O)c1ccccc1 (centres undefined)
inactive: [1] 99 % of control | [2] 98 % of control

CCc1ccc(C2=C(Cl)C(=O)C(c3ccccc3)=C(Cl)C2=O)cc1
inactive: dose: 12.5 mg/kg/injection, schedule: Q01DX005 (ip), vehicle: Klucel (hydroxypropylcellulose) (HPC) 98 % of control | [15] 93 % of control | [12] 93 % of control and 98 % of control

NC(=S)N/N=C\c1nc2ccccc2c2ccccc12
inactive: dose: 50.0 mg/kg/injection, schedule: Q04DX002 (ip), vehicle: Klucel (hydroxypropylcellulose) (HPC) 99 % of control | dose: 100.0 mg/kg/injection, schedule: Q04DX002 (ip), vehicle: Klucel (hydroxypropylcellulose) (HPC) 95 % of control | dose: 200.0 mg/kg/injection, schedule: Q04DX002 (ip), vehicle: Klucel (hydroxypropylcellulose) (HPC) 94 % of control

O=C(N/N=C/c1ccc(O)cc1)c1ccc(OCc2nc3ccccc3[nH]2)cc1
inactive: [15] 102 % of control | [12] 96 % of control | [13] 102 % of control | [14] 96 % of control

O=C(Nc1ccccc1)C1C(=O)C(=O)N(c2ccccc2)C1=O (centres undefined)
inactive: dose: 50.0 mg/kg/injection, schedule: Q01DX009 (ip), vehicle: Klucel (hydroxypropylcellulose) (HPC) 107 % of control | [7] 101 % of control | [8] 99 % of control
